“Also recorded” adds a separate entry of the source.
Legend:
[1] = phase III clinical study results announced in November 2020, moderate to severe plaque psoriasis; cited from earlier work
[2] = systemic lupus erythematosus and Crohn's disease; cited from earlier work
[3] = Compressibility (ENERPAC manual tablet press, tablet hardness and tensile strength); format: physicochemical; details: 80 mg, φ6 mm round tooling, 10 KN; for Diameter / Hardness / Thickness: after 24 h at room temperature; for Tensile strength: calculated T=2H/πDL*9.8
Procedure: (§1) ENERPAC manual tablet press was used for compression. 80 mg of Form CSI and Form A were weighed and added into the dies of a φ6 mm round tooling, compressed at 10 KN manually, then stored at room temperature for 24 h until complete elastic recovery. Hardness (H) was tested with an intelligent tablet hardness tester. Diameter (D) and thickness (L) were tested with caliper. Tensile strength of the powder was calculated with the following formula: T=2H/πDL*9.8. Under a certain force, the greater the tensile strength, the better the compressibility.
as §1, with “CSII” for “CSI”

[4] = Adhesiveness (material sticking to the punch during compression); format: physicochemical; details: for Adhesiveness (in words): compared with Form A where a comparison is stated
Procedure: Approximately 30 mg of Form CSII and Form A were weighed and then added into the dies of φ8 mm round tooling, compressed at 10 kN and held for 30 s. The material sticking to the punch was recorded. The compression was repeated twice and the cumulative amount, maximum amount and average amount of material sticking to the punch during the compression were recorded.

[5] = Physical stability under pressure (tableting), XRPD before and after; format: physicochemical
Source text: A certain amount of Form CSI was compressed into tablets under 3 kN, 7 kN and 14 kN with suitable tableting die. Crystalline forms before and after tableting were checked by XRPD.
A certain amount of Form CSII was compressed into tablets under 5 kN, 10 kN and 20 kN with suitable tableting die. Crystalline forms before and after tableting were checked by XRPD.

[6] = Physical stability on manual grinding, XRPD before and after; format: physicochemical; details: ground manually for 5 minutes in a mortar
Procedure: Form CSII was grounded manually for 5 minutes in a mortar. Crystalline form before and after grinding were checked by XRPD.

[7] = Storage stability at 25 °C/60% RH and 40 °C/75% RH, crystalline form by XRPD and chemical purity by HPLC; format: physicochemical; details: for Crystalline form after storage: XRPD; for Purity: HPLC
Procedure: Approximately 5 mg of Form CSI in the present disclosure was stored under different conditions of 25° C./60% RH and 40° C./75% RH. Crystalline form and chemical purity were checked by XRPD and HPLC, respectively.
Approximately 5 mg of Form CSII in the present disclosure was stored under different conditions of 25° C./60% RH and 40° C./75% RH. Crystalline form and chemical purity were checked by XRPD and HPLC, respectively.

[8] = Thermodynamic stability: suspension of Form A plus Form CSI stirred at 5 °C, solid checked by XRPD; format: physicochemical
Procedure: A certain amount of Form A was weighed into glass vail and 0.3 mL of solvent mixtures of water and acetonitrile, water and methanol, or water and acetone according to table 8 were added to form suspensions. Approximately 6 mg of Form CSI of the present disclosure was added in the suspension. After mixing at 5° C. for 5 minutes, a portion of the solid was taken out and tested by XRPD. After the suspension was stirred at 5° C. for 6 days, a portion of the solid was taken out and tested by XRPD again.

[9] = about 30 mg, φ8 mm round tooling, 10 kN held for 30 s
[10] = 25 °C/60% RH, open and sealed, 6 months
[11] = 25 °C/60% RH, sealed (closed), 6 months
[12] = 40 °C/75% RH, open and sealed, 6 months
[13] = 40 °C/75% RH, sealed (closed), 6 months

SMILES	Compressibility / behaviour during tablet pressing (in words) [3]	Diameter [3]	Hardness [3]	Thickness [3]	Tensile strength [3]	Average amount of material sticking to the punch [4, 9]	Maximum amount of material sticking to the punch [4, 9]	Adhesiveness (in words) [4]	Time for which the crystalline form is stable (does not change) ([7]; 25 °C/60% RH, open and sealed)	Change of chemical purity during storage (in words) [7, 10]	Crystalline form after storage ([7]; 25 °C/60% RH, open, 6 months)	Crystalline form after storage [7, 11]	Time for which the crystalline form is stable (does not change) ([7]; 40 °C/75% RH, open and sealed)	Change of chemical purity during storage (in words) [7, 12]	Crystalline form after storage ([7]; 40 °C/75% RH, open, 6 months)	Crystalline form after storage [7, 13]	other results
[2H]C([2H])([2H])NC(=O)c1nnc(NC(=O)C2CC2)cc1Nc1cccc(-c2ncn(C)n2)c1OC [BMS-986165, 6-(cyclopropanecarboxamido)-4-((2-methoxy-3-(1-methyl-1H-1,2,4-triazol-3-yl)phenyl)amino)-N-(methyl-d3)pyridazine-3-carboxamide]																	Clinical effect [1]: positive clinical effects; Therapeutic effect [2]: good therapeutic effects
[2H]C([2H])([2H])NC(=O)c1nnc(NC(=O)C2CC2)cc1Nc1cccc(-c2ncn(C)n2)c1OC [Form CSII, 6-(cyclopropanecarboxamido)-4-((2-methoxy-3-(1-methyl-1H-1,2,4-triazol-3-yl)phenyl)amino)-N-(methyl-d3)pyridazine-3-carboxamide]	better compressibility compared with Form A	6.08 mm	4.24 kgf	2.30 mm	1.89 MPa	0.06 mg	0.06 mg	superior to that of Form A	at least 6 months	remains substantially unchanged	Form CSII	Form CSII	at least 6 months	remains substantially unchanged	Form CSII	Form CSII	Crystalline state after tableting ([5]; tablets compressed under 5 kN, 10 kN and 20 kN): does not change; Crystalline state after grinding [6]: does not change; also recorded: doesn't change
[2H]C([2H])([2H])NC(=O)c1nnc(NC(=O)C2CC2)cc1Nc1cccc(-c2ncn(C)n2)c1OC [Form CSI, 6-(cyclopropanecarboxamido)-4-((2-methoxy-3-(1-methyl-1H-1,2,4-triazol-3-yl)phenyl)amino)-N-(methyl-d3)pyridazine-3-carboxamide]	better compressibility compared with Form A	6.06 mm	7.87 kgf	2.39 mm	3.39 MPa	0.105 mg	0.130 mg	superior to that of Form A	at least 6 months	remains substantially unchanged	CSI	CSI	at least 6 months	remains substantially unchanged	CSI	CSI	Crystalline state after tableting ([5]; tablets compressed under 3 kN, 7 kN and 14 kN): does not change; also recorded: doesn't change; Chemical purity during storage [7, 10]: above 98.0%; Purity ([7]; 25 °C/60% RH, open, 6 months): 98.76%; Purity ([7]; 25 °C/60% RH, sealed, 6 months): 98.79%; Purity ([7]; 40 °C/75% RH, open, 6 months): 98.74%; Purity ([7]; 40 °C/75% RH, sealed, 6 months): 98.73%; Purity ([7]; initial): 98.13%; Crystalline form of solid after stirring time 5 minutes ([8]; mixture of Form A and about 6 mg Form CSI suspended in 0.3 mL water/acetonitrile, water/methanol or water/acetone (samples 1-7), 5 minutes, XRPD): Form A +; Crystalline form of solid after stirring time 6 days ([8]; mixture of Form A and about 6 mg Form CSI suspended in 0.3 mL water/acetonitrile, water/methanol or water/acetone (samples 1-7), 6 days, XRPD): CSI; Stability relative to Form A (in words) ([8]; water/acetonitrile, water/methanol or water/acetone): better stability than Form A
[2H]C([2H])([2H])NC(=O)c1nnc(NC(=O)C2CC2)cc1Nc1cccc(-c2ncn(C)n2)c1OC [Form A, 6-(cyclopropanecarboxamido)-4-((2-methoxy-3-(1-methyl-1H-1,2,4-triazol-3-yl)phenyl)amino)-N-(methyl-d3)pyridazine-3-carboxamide, reference compound]	poor compressibility; also recorded: splintering					0.190 mg	0.260 mg	high adhesiveness									Adhesion quantity of Form A relative to that of Form CSII [4, 9]: 3.2 times

Reference: patent publication US20230039086A1, “BMS-986165 CRYSTAL FORM, PREPARATION METHOD THEREFOR AND USE THEREOF” (CRYSTAL PHARMACEUTICAL (SUZHOU) CO., LTD., priority 2019, published 2023)
